Experimental data from US20120214862A1, “MODULATION OF FACTOR 7 EXPRESSION” (ISIS Pharmaceuticals, Inc., priority 2009, published 2012).
In the oligonucleotide strings, read from the 5' end, every base follows the letter of its sugar. An asterisk marks phosphorothioate; unmarked linkages are phosphodiester. Other units and linkages are bracketed, terminal groups are in braces. A string of capitals states the bases alone. e = 2'-O-(2-methoxyethyl) (MOE); [5mC] = 5-methylcytosine; d = 2'-deoxy (DNA)

Tested on: human Factor 7 mRNA
Experiment: Antisense inhibition of human Factor 7 mRNA in HepB3 cells, lipofectin, 50 nM, real-time RT-PCR
Type: cell-based
Conditions: HepB3 cells; for % Inhibition (human Factor 7 mRNA): 50 nM, ~24 h
In short: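 Percent inhibition, untreated cells as reference: derived from RNA collected about 24 hours post-transfection of 4,000-cell wells, with the human RTS 2927 primer probe set and adjustment for total RNA content (RIBOGREEN®).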

[1] = gapmers targeted to nucleobases 11830 to 11869 of SEQ ID NO: 1 (Table 9)
[2] = Example 1, lipofectin, relative to untreated control cells
[3] = gapmers (5-10-5, 3-14-3, 2-13-5 MOE) targeted to nucleobases 4868 to 4899 of SEQ ID NO: 1
[4] = lipofectin, 50 nM antisense oligonucleotide, approximately 24 hours, primer probe set RTS 2927, relative to untreated control

422235 (antisense eA*eT*dG*dG*dT*d[5mC]*dA*dG*dG*dG*d[5mC]*dT*dG*dG*dT*eT*eT*eT*eG*eG) [compound 422235]
% Inhibition of human Factor 7 mRNA levels [1]: 50%

407932 (antisense eG*eA*eA*e[5mC]*e[5mC]*dA*dG*dA*dA*dA*dA*dG*dT*dG*dA*eG*eA*eG*e[5mC]*eT) [compound 407932]
% Inhibition (human Factor 7 mRNA) [2]: 55%

422146 (antisense eA*eG*e[5mC]*e[5mC]*e[5mC]*dG*dA*dG*dT*dT*d[5mC]*dT*dG*d[5mC]*dA*eG*eG*eA*eG*e[5mC]) [compound 422146]
% Inhibition of human Factor 7 mRNA levels [3]: 58%

416516 (antisense eG*eT*eG*eA*eG*dA*dA*dT*dA*d[5mC]*dA*dA*d[5mC]*dA*dG*eA*eT*eG*eA*eG) [compound 416516]
% Inhibition of human Factor 7 mRNA levels [4]: 24%

407892 (antisense e[5mC]*e[5mC]*e[5mC]*e[5mC]*eA*dT*dT*d[5mC]*dT*dG*dG*d[5mC]*dA*dT*dG*eG*eA*e[5mC]*eT*eT) [compound 407892]
% Inhibition (human Factor 7 mRNA) [2]: 68%

416558 (antisense eT*eG*eA*e[5mC]*eA*dG*d[5mC]*dA*d[5mC]*dG*dA*dA*dG*d[5mC]*d[5mC]*e[5mC]*eA*eG*eA*eG) [compound 416558]
% Inhibition of human Factor 7 mRNA levels [4]: 19%

422092 (antisense eA*eT*eG*eG*eT*d[5mC]*dA*dG*dG*dG*d[5mC]*dT*dG*dG*dT*eT*eT*eT*eG*eG) [compound 422092]
% Inhibition of human Factor 7 mRNA levels [1]: 36%

416554 (antisense eA*eA*eA*eG*eA*dT*d[5mC]*d[5mC]*d[5mC]*dA*d[5mC]*d[5mC]*dT*d[5mC]*dA*eA*eA*eG*eA*eG) [compound 416554]
% Inhibition of human Factor 7 mRNA levels [4]: 7%

407634 (antisense eG*eT*eG*eA*e[5mC]*dT*dG*d[5mC]*dT*dG*d[5mC]*dA*dG*dG*d[5mC]*eA*eG*eT*e[5mC]*e[5mC]) [compound 407634]
% Inhibition (human Factor 7 mRNA) [2]: 24%

422261 (antisense eT*eG*d[5mC]*dG*d[5mC]*d[5mC]*dA*d[5mC]*d[5mC]*d[5mC]*dG*d[5mC]*d[5mC]*dG*dG*e[5mC]*eT*e[5mC]*eT*eG) [compound 422261]
% Inhibition of human Factor 7 mRNA levels (gapmers targeted to nucleobases 13760 to 13789 of SEQ ID NO: 1 (Table 10)): 47%

422174 (antisense eG*e[5mC]*eT*dG*dG*d[5mC]*dT*dG*dA*dG*dG*dA*dG*dA*d[5mC]*dA*dA*eT*eG*eG) [compound 422174]
% Inhibition of human Factor 7 mRNA levels [1]: 55%

407624 (antisense eG*eA*eG*eA*e[5mC]*d[5mC]*dA*d[5mC]*d[5mC]*d[5mC]*dA*dG*dA*dT*dG*eG*eT*eG*eT*eT) [compound 407624]
% Inhibition (human Factor 7 mRNA) [2]: 73%

422189 (antisense e[5mC]*eG*e[5mC]*dG*dG*dA*dA*dG*dA*dA*dG*dG*dG*dA*d[5mC]*dG*dG*eA*eA*eG) [compound 422189]
% Inhibition (human Factor 7 mRNA) (Example 4, lipofectin, relative to untreated control): 0%

416536 (antisense e[5mC]*eG*eG*eG*eA*dA*dG*dG*d[5mC]*d[5mC]*dT*dG*d[5mC]*d[5mC]*d[5mC]*eT*eG*e[5mC]*eA*eG) [compound 416536]
% Inhibition of human Factor 7 mRNA levels [4]: 23%

407668 (antisense eG*eA*eA*eG*e[5mC]*d[5mC]*dT*dT*dA*d[5mC]*d[5mC]*dT*dG*d[5mC]*d[5mC]*eA*eT*eG*eG*eA) [compound 407668]
% Inhibition (human Factor 7 mRNA) [2]: 54%

416432 (antisense eA*eG*e[5mC]*eA*e[5mC]*dT*dG*d[5mC]*dT*d[5mC]*d[5mC]*dT*d[5mC]*d[5mC]*dT*eT*eG*e[5mC]*eA*e[5mC]) [compound 416432]
% Inhibition of human Factor 7 mRNA levels [4]: 44%

407669 (antisense eT*eA*eG*eA*e[5mC]*d[5mC]*d[5mC]*dT*d[5mC]*dA*dG*dT*dG*dA*dG*eT*eG*eT*e[5mC]*eG) [compound 407669]
% Inhibition (human Factor 7 mRNA) [2]: 57%

422148 (antisense eG*eG*eA*eG*e[5mC]*d[5mC]*d[5mC]*dG*dA*dG*dT*dT*d[5mC]*dT*dG*e[5mC]*eA*eG*eG*eA) [compound 422148]
% Inhibition of human Factor 7 mRNA levels [3]: 57%
